Experimental data from publication PMC5011342, “A high throughput drug screening assay to identify compounds that promote oligodendrocyte differentiation using acutely dissociated and purified oligodendrocyte precursor cells” (BMC Research Notes, 2016).
Counter-ions that a name gives are not always drawn. Like-named read-outs stand apart in the source and are kept apart here.

How the values were obtained:
[1] = tested on: acutely dissociated and purified rat OPCs; test: Acute OL differentiation assay (MBP expression/cell, immunofluorescent image quantification); assay type: cell-based; conditions: Rattus norvegicus, sheet "All OLga data"; for activation at 0.08 µM: test compound at 0.08 uM, read-out: 0.08 uM (% Quet)
Method in brief: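 This acute differentiation assay used purified rat OPCs from postnatal day 6–7 pups, seeded into PDL/laminin-coated 96-well plates in differentiation medium lacking PDGF and FGF. Compounds were applied in quadruplicate after a 1–2 h preincubation at 37 °C, 10 % CO2, with 0.1 % DMSO negative and 40 ng/ml T3 positive controls in eight wells. After fixation on DIV4, anti-MBP immunofluorescence images yielded MBP expression/cell.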

[2] = tested on: expanded OPCs; test: cells; conditions: for 0.1 µM (% DMSO) / 1 µM (% DMSO) / 10 µM (% DMSO): alamarBlue viability of expanded OPCs, relative to DMSO control; for 0.1 µM (% DMSO): compound at 0.1 µM; for 1 µM (% DMSO): compound at 1 µM; for 10 µM (% DMSO): compound at 10 µM; for viability at 0.1 µM / viability at 1 µM / viability at 10 µM: Rattus norvegicus, 72 h
Method in brief: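 Toxicity screen: compounds added at 0.1, 1 and 10 µM to PDGF-AA-expanded OPCs in 96-well plates, 3-day incubation at 37 °C, 10% CO2, then alamarBlue 1:10 for 4 h with fluorescence readout. Results set screening doses of 10/2, 2/0.4 or 0.4/0.08 µM.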

[3] = MBP expression relative to quetiapine, NCC library screen
[4] = test compound at 0.4 uM, MBP expression relative to quetiapine, NCC library screen, read-out: 0.4 uM (% Quet)
[5] = test compound at 2 uM, NCC library screen, relative to quetiapine, read-out: 2 uM (% Quet)
[6] = test compound at 10 uM, NCC library screen, relative to quetiapine, read-out: 10 uM (% Quet)
[7] = 2 uM test compound, relative to quetiapine, read-out: OL differentiation, 2 uM (% Quet)
[8] = 10 uM test compound, relative to quetiapine, read-out: OL differentiation, 10 uM (% Quet)
[9] = read-out: 0.1 µM (% DMSO), alamarBlue viability of expanded OPCs, compound at 0.1 µM, sheet All Tox data
[10] = read-out: 1 µM (% DMSO), alamarBlue viability of expanded OPCs, compound at 1 µM, sheet All Tox data
[11] = read-out: 10 µM (% DMSO), alamarBlue viability of expanded OPCs, compound at 10 µM, sheet All Tox data
[12] = test compound at 2 uM, MBP expression relative to quetiapine, NCC library screen, read-out: 2 uM (% Quet)
[13] = test compound at 10 uM, MBP expression relative to quetiapine, NCC library screen, read-out: 10 uM (% Quet)
[14] = read-out: 0.1 µM (% DMSO), alamarBlue viability, NCC library compound at 0.1 µM, sheet "All Tox data"
[15] = read-out: 1 µM (% DMSO), alamarBlue viability, NCC library compound at 1 µM, sheet "All Tox data"
[16] = read-out: 10 µM (% DMSO), alamarBlue viability, NCC library compound at 10 µM, sheet "All Tox data"

SMILES	0.1 µM (% DMSO) [2]	1 µM (% DMSO) [2]	10 µM (% DMSO) [2]	activation at 2 µM [1, 7]	activation at 10 µM [1, 8]	viability at 0.1 µM [2, 9]	viability at 1 µM [2, 10]	viability at 10 µM [2, 11]	other results
CCOC(=O)C1=C(C)NC(C)=C(C(=O)OC)C1c1cccc(Cl)c1Cl (stereo not shown) [Felodipine]	85.5 % DMSO	62.8 % DMSO	18.3 % DMSO	–	–	–	–	–	activation at 0.08 µM [1, 3]: -8.1%; activation at 0.4 µM [1, 4]: 0.8%
CC(C)OC(=O)C(C)(C)Oc1ccc(C(=O)c2ccc(Cl)cc2)cc1 [Fenofibrate]	85.2 % DMSO	87.6 % DMSO	103.9 % DMSO	–	–	–	–	–	activation at 2 µM [1, 5]: 31.5%; activation at 10 µM [1, 6]: -62.3%
Oc1ccc(C2CNCCc3c2cc(O)c(O)c3Cl)cc1 (stereo not shown) [Fenoldopam]	–	–	–	-32.3%	-79.8%	106%	97.4%	75.9%	–
C[N+]1(CCC(C(N)=O)(c2ccccc2)c2ccccc2)CCCCC1 [Fenpiverinium]	–	–	–	-23.8%	-19.5%	93.3%	96.9%	101%	–
CC(C)(C)NC(=O)[C@H]1CC[C@H]2[C@@H]3CC[C@H]4NC(=O)C=C[C@]4(C)[C@H]3CC[C@]12C [Finasteride]	–	–	–	-14.4%	-17.4%	83.3%	85.8%	85.3%	–
O=C(NCC1CCCCN1)c1cc(OCC(F)(F)F)ccc1OCC(F)(F)F (stereo not shown) [Flecainide]	64.1 % DMSO	9.0 % DMSO	7.7 % DMSO	–	–	–	–	–	activation at 0.08 µM [1, 3]: 2.3%
O=c1[nH]c(=O)n([C@H]2C[C@H](O)[C@@H](CO)O2)cc1F [Floxuridine]	65.0 % DMSO	64.9 % DMSO	67.9 % DMSO	–	–	–	–	–	activation at 0.4 µM [1, 4]: -13.5%; activation at 2 µM [1, 12]: -23.6%
COC(=O)Nc1nc2cc(C(=O)c3ccc(F)cc3)ccc2[nH]1 [Flubendazole]	–	–	–	-188%	–	74.4%	69.3%	43.7%	activation at 0.4 µM ([1]; 0.4 uM test compound, relative to quetiapine, read-out: OL differentiation, 0.4 uM (% Quet)): -62.9%
OC(Cn1cncn1)(Cn1cncn1)c1ccc(F)cc1F [Fluconazole]	89.6 % DMSO	88.1 % DMSO	92.1 % DMSO	–	–	–	–	–	activation at 2 µM [1, 12]: 0.9%; activation at 10 µM [1, 13]: -44.2%
Nc1[nH]c(=O)ncc1F [Flucytosine]	–	–	–	-1.1%	-1%	98.2%	90.7%	99.4%	–
Nc1nc(F)nc2c1ncn2[C@@H]1O[C@H](CO)[C@@H](O)[C@@H]1O [Fludarabine]	91.2 % DMSO	88.7 % DMSO	77.9 % DMSO	–	–	–	–	–	activation at 2 µM [1, 12]: 18.7%; activation at 10 µM [1, 13]: -12.6%
CCOC(=O)c1ncn2c1CN(C)C(=O)c1cc(F)ccc1-2 [Flumazenil]	–	–	–	-7.2%	-31.7%	84.8%	88.2%	95.5%	–
CC1(C)O[C@@H]2C[C@H]3[C@@H]4C[C@H](F)C5=CC(=O)C=C[C@]5(C)[C@@]4(F)[C@@H](O)C[C@]3(C)[C@]2(C(=O)CO)O1 [Fluocinolone Acetonide]	–	–	–	–	–	–	–	–	activation at 2 µM [1, 5]: 12.9%; activation at 10 µM [1, 6]: 9.2%; viability at 0.1 µM [2, 14]: 116%; viability at 1 µM [2, 15]: 118%; viability at 10 µM [2, 16]: 111%
CC(=O)OCC(=O)[C@@]12OC(C)(C)O[C@@H]1C[C@H]1[C@@H]3C[C@H](F)C4=CC(=O)C=C[C@]4(C)[C@@]3(F)[C@@H](O)C[C@@]12C [Fluocinonide]	108.3 % DMSO	102.9 % DMSO	80.4 % DMSO	–	–	–	–	–	activation at 2 µM [1, 12]: 12.4%; activation at 10 µM [1, 13]: -24.4%
CC(=O)[C@@]1(O)CC[C@H]2[C@@H]3C[C@H](C)C4=CC(=O)C=C[C@]4(C)[C@@]3(F)[C@@H](O)C[C@@]21C [Fluorometholone]	112.5 % DMSO	98.3 % DMSO	86.2 % DMSO	–	–	–	–	–	activation at 2 µM [1, 12]: 9.3%; activation at 10 µM [1, 13]: -24.3%
CNCCC(Oc1ccc(C(F)(F)F)cc1)c1ccccc1 (stereo not shown) [Fluoxetine hydrochloride]	77.4 % DMSO	42.2 % DMSO	7.9 % DMSO	–	–	–	–	–	activation at 0.08 µM [1, 3]: 13%; activation at 0.4 µM [1, 4]: 10.7%
CN1CCN(C2=Nc3cc(F)ccc3Cc3ccccc32)CC1 [Fluperlapine]	–	–	–	–	–	–	–	–	activation at 0.4 µM ([1]; test compound at 0.4 uM, NCC library screen, relative to quetiapine, read-out: 0.4 uM (% Quet)): -10.3%; activation at 2 µM [1, 5]: -16.2%; viability at 0.1 µM [2, 14]: 78.1%; viability at 1 µM [2, 15]: 64.8%; viability at 10 µM [2, 16]: 32.2%
CC(C(=O)O)c1ccc(-c2ccccc2)c(F)c1 (stereo not shown) [Flurbiprofen]	–	–	–	-3.6%	24.6%	95.9%	103%	91.2%	activation at 2 µM [1, 5]: 1.8%; activation at 10 µM [1, 6]: -6.1%; viability at 0.1 µM [2, 14]: 91.1%; viability at 1 µM [2, 15]: 88.1%; viability at 10 µM [2, 16]: 89.4%
CC(C)C(=O)Nc1ccc([N+](=O)[O-])c(C(F)(F)F)c1 [Flutamide]	88.5 % DMSO	91.4 % DMSO	103.8 % DMSO	–	–	–	–	–	activation at 2 µM [1, 5]: 2.7%; activation at 10 µM [1, 6]: -38.5%
C[C@@H]1C[C@H]2[C@@H]3C[C@H](F)C4=CC(=O)C=C[C@]4(C)[C@@]3(F)[C@@H](O)C[C@]2(C)[C@@]1(O)C(=O)SCF [Fluticasone]	–	–	–	14.2%	-38.8%	103%	106%	112%	–
CC(C)n1c(/C=C/C(O)CC(O)CC(=O)O)c(-c2ccc(F)cc2)c2ccccc21 (stereo not shown) [Fluvastatin]	96.9 % DMSO	53.3 % DMSO	9.3 % DMSO	–	–	–	–	–	activation at 0.08 µM [1, 3]: -66.1%; activation at 0.4 µM [1, 4]: -73.4%
